Data published in ChEMBL document CHEMBL5321208, “The effect of side chain variations on quinazoline-pyrimidine G-quadruplex DNA ligands” (Eur J Med Chem, 2023).
pKd: −log10 of the molar value. Activity calls are given as the source filed them. The rule behind the calls is not given here.

tested on: Quadruplex DNA; assay: Binding affinity to FAM/TAMRA-labelled antiparallel Bom17 G4 DNA (unknown origin) assessed as thermal stabilization at 1 to 8 uM measured at 10 to 95 degreeC by FRET analysis; type: nucleic-acid assay; settings: dose 1-8 µM

| Activity | SMILES |
| --- | --- |
| inactive | Cc1cc(NCCCN2CCCC2)nc(Nc2nc(C)c3ccc4c(c3n2)CCCC4)n1 |
| inactive | CCN(CC)CCCNc1cc(C)nc(Nc2nc(C)c3ccc4c(c3n2)CCCC4)n1 |
| inactive | Cc1cc(NCCCN2CCN(C)CC2)nc(Nc2nc(C)c3ccc4c(c3n2)CCCC4)n1 |

tested on: Quadruplex DNA; assay: Binding affinity to FAM/TAMRA-labelled parallel c-MYC Pu24T G4 DNA (unknown origin) assessed as thermal stabilization in the presence of 15 equivalents of double stranded DNA by FRET competition assay; type: nucleic-acid assay; settings: not given

| Activity | SMILES |
| --- | --- |
| Active | Cc1cc(NCCCN2CCCC2)nc(Nc2nc(C)c3ccc4c(c3n2)CCCC4)n1 |
| Active | CCN(CC)CCCNc1cc(C)nc(Nc2nc(C)c3ccc4c(c3n2)CCCC4)n1 |
| Active | Cc1cc(NCCCN2CCN(C)CC2)nc(Nc2nc(C)c3ccc4c(c3n2)CCCC4)n1 |

target: Quadruplex DNA; assay: Binding affinity to 5'-Cy5-labelled parallel c-MYC Pu24T G4 DNA (unknown origin) assessed as dissociation constant by MST analysis; type: nucleic-acid assay; settings: not given

| pKd | SMILES |
| --- | --- |
| 6.61 | Cc1cc(NCCCN2CCCC2)nc(Nc2nc(C)c3ccc4c(c3n2)CCCC4)n1 |
| 6.64 | CCN(CC)CCCNc1cc(C)nc(Nc2nc(C)c3ccc4c(c3n2)CCCC4)n1 |
| 6.55 | Cc1cc(NCCCN2CCN(C)CC2)nc(Nc2nc(C)c3ccc4c(c3n2)CCCC4)n1 |

tested on: Quadruplex DNA; assay: Binding affinity to FAM/TAMRA-labelled parallel c-MYC Pu24T G4 DNA (unknown origin) assessed as thermal stabilization by measuring change in melting temperature at 2 uM in the presence of 100 equivalents of double stranded DNA by FRET competition assay; type: nucleic-acid assay; settings: not given

| ΔTm [°C] | SMILES |
| --- | --- |
| 7 | Cc1cc(NCCCN2CCCC2)nc(Nc2nc(C)c3ccc4c(c3n2)CCCC4)n1 |
| 7 | CCN(CC)CCCNc1cc(C)nc(Nc2nc(C)c3ccc4c(c3n2)CCCC4)n1 |
| 7 | Cc1cc(NCCCN2CCN(C)CC2)nc(Nc2nc(C)c3ccc4c(c3n2)CCCC4)n1 |

tested on: Quadruplex DNA; assay: Binding affinity to FAM/TAMRA-labelled c-MYC Pu22 G4 DNA (unknown origin) assessed as thermal stabilization at 1 to 8 uM measured at 10 to 95 degreeC by FRET analysis; type: nucleic-acid assay; settings: dose 1-8 µM

| Activity | SMILES |
| --- | --- |
| Active | Cc1cc(NCCCN2CCCC2)nc(Nc2nc(C)c3ccc4c(c3n2)CCCC4)n1 |
| Active | CCN(CC)CCCNc1cc(C)nc(Nc2nc(C)c3ccc4c(c3n2)CCCC4)n1 |
| Active | Cc1cc(NCCCN2CCN(C)CC2)nc(Nc2nc(C)c3ccc4c(c3n2)CCCC4)n1 |

tested on: Quadruplex DNA; assay: Binding affinity to FAM/TAMRA-labelled c-KIT2 G4 DNA (unknown origin) assessed as thermal stabilization at 1 to 8 uM measured at 10 to 95 degreeC by FRET analysis; type: nucleic-acid assay; settings: dose 1-8 µM

| Activity | SMILES |
| --- | --- |
| Active | Cc1cc(NCCCN2CCCC2)nc(Nc2nc(C)c3ccc4c(c3n2)CCCC4)n1 |
| Active | CCN(CC)CCCNc1cc(C)nc(Nc2nc(C)c3ccc4c(c3n2)CCCC4)n1 |
| Active | Cc1cc(NCCCN2CCN(C)CC2)nc(Nc2nc(C)c3ccc4c(c3n2)CCCC4)n1 |

tested on: Quadruplex DNA; assay: Binding affinity to FAM/TAMRA-labelled parallel KRAS G4 DNA (unknown origin) assessed as thermal stabilization in the presence of 15 equivalents of double stranded DNA by FRET competition assay; type: nucleic-acid assay; settings: not given

| Activity | SMILES |
| --- | --- |
| Active | Cc1cc(NCCCN2CCCC2)nc(Nc2nc(C)c3ccc4c(c3n2)CCCC4)n1 |
| Active | CCN(CC)CCCNc1cc(C)nc(Nc2nc(C)c3ccc4c(c3n2)CCCC4)n1 |
| Active | Cc1cc(NCCCN2CCN(C)CC2)nc(Nc2nc(C)c3ccc4c(c3n2)CCCC4)n1 |

tested on: dsDNA; assay: Binding affinity to double stranded DNA (unknown origin) assessed as thermal stabilization at 1 to 8 uM measured at 10 to 95 degreeC by FRET analysis; type: nucleic-acid assay; settings: dose 1-8 µM

| Activity | SMILES |
| --- | --- |
| inactive | CCOC(=O)CCN1CCN(c2cc(C)nc(Nc3nc(C)c4ccc5c(c4n3)CCCC5)n2)CC1 |
| inactive | Cc1cc(NCCCN2CCCC2)nc(Nc2nc(C)c3ccc4c(c3n2)CCCC4)n1 |
| inactive | CCN(CC)CCCNc1cc(C)nc(Nc2nc(C)c3ccc4c(c3n2)CCCC4)n1 |
| inactive | Cc1cc(NCCCN2CCN(C)CC2)nc(Nc2nc(C)c3ccc4c(c3n2)CCCC4)n1 |

tested on: Quadruplex DNA; assay: Binding affinity to parallel c-MYC Pu24T G4 DNA (unknown origin) assessed as change in topology at 5 uM by CD spectra analysis; type: nucleic-acid assay; settings: not given

| Activity | SMILES |
| --- | --- |
| inactive | Cc1cc(NCCCN2CCCC2)nc(Nc2nc(C)c3ccc4c(c3n2)CCCC4)n1 |
| inactive | CCN(CC)CCCNc1cc(C)nc(Nc2nc(C)c3ccc4c(c3n2)CCCC4)n1 |
| inactive | Cc1cc(NCCCN2CCN(C)CC2)nc(Nc2nc(C)c3ccc4c(c3n2)CCCC4)n1 |

tested on: Quadruplex DNA; assay: Binding affinity to FAM/TAMRA-labelled parallel KRAS G4 DNA (unknown origin) assessed as thermal stabilization by measuring change in melting temperature at 2 uM in the presence of 100 equivalents of double stranded DNA by FRET competition assay; type: nucleic-acid assay; settings: not given

| ΔTm [°C] | SMILES |
| --- | --- |
| 10 | Cc1cc(NCCCN2CCCC2)nc(Nc2nc(C)c3ccc4c(c3n2)CCCC4)n1 |
| 10 | CCN(CC)CCCNc1cc(C)nc(Nc2nc(C)c3ccc4c(c3n2)CCCC4)n1 |
| 10 | Cc1cc(NCCCN2CCN(C)CC2)nc(Nc2nc(C)c3ccc4c(c3n2)CCCC4)n1 |

tested on: Quadruplex DNA; assay: Binding affinity to FAM/TAMRA-labelled parallel KRAS G4 DNA (unknown origin) assessed as thermal stabilization at 1 to 8 uM measured at 10 to 95 degreeC by FRET analysis; type: nucleic-acid assay; settings: dose 1-8 µM

| Activity | SMILES |
| --- | --- |
| inactive | CCOC(=O)CCN1CCN(c2cc(C)nc(Nc3nc(C)c4ccc5c(c4n3)CCCC5)n2)CC1 |

tested on: Quadruplex DNA; assay: Binding affinity to FAM/TAMRA-labelled 21g G4 DNA (unknown origin) assessed as thermal stabilization at 1 to 8 uM measured at 10 to 95 degreeC by FRET analysis; type: nucleic-acid assay; settings: dose 1-8 µM

| Activity | SMILES |
| --- | --- |
| Active | Cc1cc(NCCCN2CCCC2)nc(Nc2nc(C)c3ccc4c(c3n2)CCCC4)n1 |
| Active | CCN(CC)CCCNc1cc(C)nc(Nc2nc(C)c3ccc4c(c3n2)CCCC4)n1 |
| Active | Cc1cc(NCCCN2CCN(C)CC2)nc(Nc2nc(C)c3ccc4c(c3n2)CCCC4)n1 |

tested on: Quadruplex DNA; assay: Binding affinity to parallel c-MYC Pu24T G4 DNA (unknown origin) assessed as thermal stabilization by measuring change in melting temperature at 5 uM measured at 1:1 DNA to ligand ratio by CD spectra analysis; type: nucleic-acid assay; settings: not given

| ΔTm [°C] | SMILES |
| --- | --- |
| 8 | Cc1cc(NCCCN2CCCC2)nc(Nc2nc(C)c3ccc4c(c3n2)CCCC4)n1 |
| 7 | CCN(CC)CCCNc1cc(C)nc(Nc2nc(C)c3ccc4c(c3n2)CCCC4)n1 |
| 6 | Cc1cc(NCCCN2CCN(C)CC2)nc(Nc2nc(C)c3ccc4c(c3n2)CCCC4)n1 |

tested on: Quadruplex DNA; assay: Binding affinity to FAM/TAMRA-labelled antiparallel TBA G4 DNA (unknown origin) assessed as thermal stabilization at 1 to 8 uM measured at 10 to 95 degreeC by FRET analysis; type: nucleic-acid assay; settings: dose 1-8 µM

| Activity | SMILES |
| --- | --- |
| inactive | Cc1cc(NCCCN2CCCC2)nc(Nc2nc(C)c3ccc4c(c3n2)CCCC4)n1 |
| inactive | CCN(CC)CCCNc1cc(C)nc(Nc2nc(C)c3ccc4c(c3n2)CCCC4)n1 |
| inactive | Cc1cc(NCCCN2CCN(C)CC2)nc(Nc2nc(C)c3ccc4c(c3n2)CCCC4)n1 |

tested on: Quadruplex DNA; assay: Binding affinity to FAM/TAMRA-labelled parallel 25ceb G4 DNA (unknown origin) assessed as thermal stabilization at 1 to 8 uM measured at 10 to 95 degreeC by FRET analysis; type: nucleic-acid assay; settings: dose 1-8 µM

| Activity | SMILES |
| --- | --- |
| inactive | Cc1cc(NCCCN2CCCC2)nc(Nc2nc(C)c3ccc4c(c3n2)CCCC4)n1 |
| inactive | CCN(CC)CCCNc1cc(C)nc(Nc2nc(C)c3ccc4c(c3n2)CCCC4)n1 |
| inactive | Cc1cc(NCCCN2CCN(C)CC2)nc(Nc2nc(C)c3ccc4c(c3n2)CCCC4)n1 |

tested on: Quadruplex DNA; assay: Binding affinity to FAM/TAMRA-labelled parallel c-MYC Pu24T G4 DNA (unknown origin) assessed as thermal stabilization at 1 to 8 uM measured at 10 to 95 degreeC by FRET analysis; type: nucleic-acid assay; settings: dose 1-8 µM

| Activity | SMILES |
| --- | --- |
| inactive | CCOC(=O)CCN1CCN(c2cc(C)nc(Nc3nc(C)c4ccc5c(c4n3)CCCC5)n2)CC1 |
| Active | Cc1cc(NCCCN2CCCC2)nc(Nc2nc(C)c3ccc4c(c3n2)CCCC4)n1 |
| Active | CCN(CC)CCCNc1cc(C)nc(Nc2nc(C)c3ccc4c(c3n2)CCCC4)n1 |
| Active | Cc1cc(NCCCN2CCN(C)CC2)nc(Nc2nc(C)c3ccc4c(c3n2)CCCC4)n1 |

tested on: Quadruplex DNA; assay: Binding affinity to FAM/TAMRA-labelled c-KIT1 G4 DNA (unknown origin) assessed as thermal stabilization at 1 to 8 uM measured at 10 to 95 degreeC by FRET analysis; type: nucleic-acid assay; settings: dose 1-8 µM

| Activity | SMILES |
| --- | --- |
| Active | Cc1cc(NCCCN2CCCC2)nc(Nc2nc(C)c3ccc4c(c3n2)CCCC4)n1 |
| Active | CCN(CC)CCCNc1cc(C)nc(Nc2nc(C)c3ccc4c(c3n2)CCCC4)n1 |
| Active | Cc1cc(NCCCN2CCN(C)CC2)nc(Nc2nc(C)c3ccc4c(c3n2)CCCC4)n1 |
